Laboratory results from PubChem BioAssay (NCI).
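In this assay, cells in 96-well plates receive the compound at five concentrations for 48 hours. Endpoints are linearly interpolated between the surrounding concentrations. GI50 is the concentration that inhibits growth by half. Definition used: TGI = concentration required for complete inhibition of growth.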

What was measured:
Test in all cases: NCI tumour cell line growth inhibition, 48 h
[1] = test system: T-47D breast
[2] = test system: SR leukemia
[3] = test system: CCRF-CEM leukemia
[4] = test system: HCT-15 colon
[5] = test system: SK-MEL-28 melanoma
[6] = test system: CAKI-1 renal
[7] = test system: A498 renal
[8] = test system: A549 NSCLC
[9] = test system: SK-OV-3 ovarian
[10] = test system: TK-10 renal
[11] = test system: RPMI-8226 leukemia
[12] = test system: HOP-62 NSCLC
[13] = test system: PC-3 prostate
[14] = test system: SF-295 CNS
[15] = test system: MDA-MB-231 breast
[16] = test system: MDA-MB-435
[17] = test system: HOP-92 NSCLC
[18] = test system: IGROV1 ovarian
[19] = test system: MOLT-4 leukemia
[20] = test system: SW-620 colon
[21] = test system: OVCAR-5 ovarian
[22] = test system: HS 578T breast
[23] = test system: OVCAR-4 ovarian
[24] = test system: SNB-19 CNS
[25] = test system: DU-145 prostate
[26] = test system: SF-268 CNS
[27] = test system: SN12C renal
[28] = test system: SNB-75 CNS
[29] = test system: NCI-H460 lung
[30] = test system: NCI-H23 lung
[31] = test system: UACC-257 melanoma
[32] = test system: KM12 colon
[33] = test system: OVCAR-8 ovarian
[34] = test system: NCI/ADR-RES ovarian
[35] = test system: U251 CNS
[36] = test system: OVCAR-3 ovarian
[37] = test system: SK-MEL-2 melanoma
[38] = test system: NCI-H226 lung

CC(C)=CCC/C(C)=C/CC/C(C)=C/CC/C(C)=C/CSC[C@H](NC(=O)CCCCCN1CCN(C)CC1)C(=O)NC1CCCCC1
GI50 [1]: 2.31 µM | TGI [1]: 7.02 µM | GI50 [2]: 2.44 µM | TGI [2]: 6.27 µM | GI50 [3]: 2.51 µM | TGI [3]: 7.67 µM | GI50 [4]: 1.78 µM | TGI [4]: 3.47 µM | GI50 [5]: 1.79 µM | TGI [5]: 3.43 µM | GI50 [6]: 3.08 µM | TGI [6]: 11 µM | GI50 [7]: 14.4 µM | TGI [7]: 34.2 µM | GI50 [8]: 3.36 µM | TGI [8]: 14 µM | GI50 [9]: 13 µM | TGI [9]: 32.5 µM | GI50 [10]: 11.7 µM | TGI [10]: 30.5 µM | GI50 [11]: 2.14 µM | TGI [11]: 5.13 µM | GI50 [12]: 8.63 µM | TGI [12]: 32.2 µM | GI50 [13]: 1.76 µM | TGI [13]: 3.49 µM | GI50 [14]: 1.74 µM | TGI [14]: 3.51 µM | GI50 [15]: 2 µM | TGI [15]: 3.84 µM | GI50 [16]: 1.66 µM | TGI [16]: 3.07 µM | GI50 [17]: 2.13 µM | TGI [17]: 11.3 µM | GI50 [18]: 2.91 µM | TGI [18]: 7.76 µM | GI50 [19]: 3.17 µM | TGI [19]: 8.44 µM | GI50 [20]: 1.91 µM | TGI [20]: 3.81 µM | GI50 [21]: 2.05 µM | TGI [21]: 5.25 µM | GI50 [22]: 3.54 µM | TGI [22]: 17.4 µM | GI50 [23]: 3.51 µM | TGI [23]: 15.5 µM | GI50 [24]: 2.27 µM | TGI [24]: 5.71 µM | GI50 [25]: 2.08 µM | TGI [25]: 4.07 µM | GI50 [26]: 4.05 µM | TGI [26]: 17.5 µM | GI50 [27]: 2.36 µM | TGI [27]: 6.19 µM | GI50 [28]: 4.16 µM | TGI [28]: 21 µM | GI50 [29]: 1.94 µM | TGI [29]: 3.73 µM | GI50 [30]: 4.73 µM | TGI [30]: 23.4 µM | GI50 [31]: 2.09 µM | TGI [31]: 4.93 µM | GI50 [32]: 2.03 µM | TGI [32]: 4.01 µM | GI50 [33]: 3.4 µM | TGI [33]: 14.3 µM | GI50 [34]: 8.98 µM | TGI [34]: 33.8 µM | GI50 [35]: 1.81 µM | TGI [35]: 3.52 µM | GI50 [36]: 2.66 µM | TGI [36]: 6.49 µM | GI50 [37]: 4.11 µM | TGI [37]: 14.5 µM | GI50 [38]: 24 µM | TGI [38]: 98.2 µM
